Experimental findings from patent US10064858B2, “Methods and compositions for treating bacterial infections with iron chelators” (THE UNITED STATES OF AMERICA, AS REPRESENTED BY THE …, priority 2011, dated 2018) are described below.

In brackets after ≈: the same amount, converted by molar mass. Entries after “also recorded” stand apart in the source; their conditions may differ.

In assay [1] the test system is A. baumannii strain AB19606. The assay is described as follows: Growth (OD600) with chelator, Rifampin or both. The format is cell-based. To be noted: 1.5×MIC Apo6619 in combination with ¾×MIC Rifampicin. The protocol:
A. baumannii strain AB19606 was grown in CAMHB and challenged with 1.5×MIC compound 4 (Var) or 1.5×MIC Triapine (Tri) with or without 0.75×MIC Rifampin (Rif). Growth was estimated by absorbance at 600 nm (y-axis) at 0 or 24 hours.

The subject of assay [2] is E. coli O157:H7. The assay is described as follows: Time-kill assay, Apo6619 with Rifampin. To be noted: 1.5×MIC Apo6619 in combination with 0.75×MIC Rifampin; 0, 5 and 24 hours. The format is cell-based. The protocol:
Reductions in colony forming units (CFU)/mL were determined over time (time-kill assay) after exposure to VK28 and deferiprone (DFP), the two iron chelators that performed best in MIC assays when compared to controls. To better represent the iron content found in the human body, MIC and time-kill assays were also determined in minimal media and tissue culture media. Time-Kill assays were performed as previously described in G. P. Neupane et al., “In vitro time-kill activities of ciprofloxacin alone and in combination with the iron chelator deferasirox against Vibrio vulnificus,” European Journal of Clinical Microbiology and Infectious Diseases, 407-410 (2010); and R. L. White, et al., “Comparison of Three Different In Vitro Methods of Detecting synergy: Time-Kill, Checkerboard, and E test,” Journal of Antimicrobial Agents and Chemotherapy, 1914-1918 (1996). Initial inocula, for example 1×10^6 CFU/mL or 1×10^7 CFU/mL were challenged with iron chelator with and/or without an antibiotic. […] Time-kill results were analyzed by determining the change in log 10 numbers of CFU/ml at 0, 6, and 24 h, compared to counts at 0 h. […]
In this example, time-kill assays were performed as described in Example 9 using Apo6619 as the iron chelator in combination with Rifampin against E. coli O157:H7. […] Time-kill results were analyzed by determining the change in log 10 numbers of CFU/mL at 0, 5 and 24 hours.

The test system of assay [3] is KP ndm. Kind of assay: Checkerboard assay, chelator with antibiotic (FIC). The format is cell-based, K. pneumonia. From the text:
Drug interactions were initially evaluated with the “checkerboard” microdilution design, which provided a matrix of all drug combinations assayed in terms of fractions of the previously determined MIC. The checkerboard microdilution design is described in R. J. Tallarida, “Drug Synergism: Its Detection and Applications,” Journal of Pharmacology and Experimental Therapeutics, 865-872 (2001); and in R. L. White, et al., (1996), supra. FIGS. 39A and 39B show the wellplates having different concentrations of iron chelator and antibiotic, as labeled along the x-axis and y-axis.
The checkerboard assay was used to asses other combinations of iron chelators and antibiotics. The fractional inhibitory concentration index (FIC), which was calculated as follows: FIC=(MIC A in combination/MIC A)+(MIC B in combination/MIC B). Interaction was defined as synergistic if the FIC was <1.0, preferably <0.5, no interaction if the FIC was >1.0 and <4.0, and antagonistic if the FIC was >4.0.
The assay was run against the multi-drug resistant bacterial species AB 19606, AB 17978, KP ndm, PA PAO1, PA 27853, EC 35718, and EC 43888. Blank spaces indicate concentrations not tested. […] Against the species PA PAO1 and PA 27853, all the antibiotics except for Ami.

Assay [4] has as its system WBA 2090 E. faecilium. The assay is described as follows: MIC, similar assays. The format is cell-based. As for the experimental part:
Individual MICs were determined following the microdilution method recommended by CLSI in cationic-adjusted Mueller-Hinton Broth (CAMHB), or M9 media. […] Tests were performed in triplicate. MIC of iron chelators were determined for noscomial ESKAPE pathogens.

Assay [5] has as its system Pseudomonas aeruginosa. Kind of assay: Growth (OD600) with VK28 in M9 media with magnesium / calcium. The format is cell-based. To be noted: 24 hours. The protocol:
Pseudomonas aeruginosa was grown similar to as described in Example 21 in M9 media containing 2 mM MgSO4 for 24 hours in the presence of 0 μg/ml, 50 μg/ml, 100 μg/ml, or 200 μg/ml VK28. The OD600 was measured at 0, 4, and 24 hour and the results are shown in the time-kill curves of FIG. 20.
In this example, strains of MR Staphylococcus aureus (MRSA), Acinetobacter baumannii (Acinetobacter), Escherichia coli (E. coli), and Pseudomonas aeruginosa (Pseudomonas) were grown in M9 media in the presence of 2 mM MgSO4 and 1.35 mM CaCl2 for 24 hours in the presence or absence of 0 μg/ml, 50 μg/ml, 100 μg/ml, or 200 μg/ml of VK28. The OD600 was measured at 24 hour and the results are shown in the bar graph of FIG. 21.

Assay [6] has as its system AB5075 (MRSN959). Kind of assay: Infected punch biopsy wound in mice, topical treatment. The format is in vivo. From the text:
This example provides an in vivo evaluation of the effectiveness of VK28 in treating a bacterial infection. Mice were wounded with 6 mm punch biopsy and infected with AB5075 (MRSN959) and treated daily for 14 days with poloxamer F-127 gel alone as a control composition (FIG. 11A) or F-127 gel containing 5% VK28 (as a topical composition containing an iron chelator).

Assay [7] relates to MRSA ATCC SA43300. Kind of assay: Time-kill assay in CAMHB. The format is cell-based, S. aureus. To be noted: 1×MIC and 2×MIC VK28. The protocol:
Reductions in colony forming units (CFU)/mL were determined over time (time-kill assay) after exposure to VK28 and deferiprone (DFP), the two iron chelators that performed best in MIC assays when compared to controls. To better represent the iron content found in the human body, MIC and time-kill assays were also determined in minimal media and tissue culture media. Time-Kill assays were performed as previously described in G. P. Neupane et al., “In vitro time-kill activities of ciprofloxacin alone and in combination with the iron chelator deferasirox against Vibrio vulnificus,” European Journal of Clinical Microbiology and Infectious Diseases, 407-410 (2010); and R. L. White, et al., “Comparison of Three Different In Vitro Methods of Detecting synergy: Time-Kill, Checkerboard, and E test,” Journal of Antimicrobial Agents and Chemotherapy, 1914-1918 (1996). Initial inocula, for example 1×10^6 CFU/mL or 1×10^7 CFU/mL were challenged with iron chelator with and/or without an antibiotic. Cells were allowed to grow in CAMHB at 37° C. for 24 hours. Time-kill results were analyzed by determining the change in log 10 numbers of CFU/ml at 0, 6, and 24 h, compared to counts at 0 h. […]

In assay [8] the test system is AB5711. The assay is described as follows: Effect of VK28 on the activity of antibiotics (OD600). Particulars: 50 μM VK28; 30 antibiotics. The format is cell-based, A. baumannii. The protocol: In some aspects of the present invention, one or more iron chelators (for example Compound 4, VK28, or its analogs or derivatives, or Apo6619) may be used in a composition or method for treating a bacterial infection with one or more antibiotics. […] Methods and compositions comprising one or more iron chelators with one or more of each of the foregoing antibiotics are hereby disclosed.
In this example, culture of AB5711 was grown overnight in LB media at 37° C. and diluted 1:100 into Media A. Cells were allowed to grow for 4 hours at 37 in 96-well plates and were then treated with antibiotics with or without 50 μM VK28. Cells were then allowed to shake for an additional 20 hours, and OD600 measurements were taken.

Consider `CNC(=O)c1c(O)c(=O)cc(C)n1C1CC1` [Apo6619, 1-cyclopropyl-3-hydroxy-6-methyl-4-oxo-1,4-dihydro-pyridine-2-carboxylic acid methylamide], for which the “growth (absorbance at 600 nm) at 24 hour” value in assay [1] is “synergistic effect in inhibiting growth of AB19606”. For the same compound, in assay [2], the time kill curves entry was “combinational effect”.

For orientation: MIC means the lowest concentration that inhibits growth of the organism. In the case of `Cc1c(O)c(=O)ccn1C` [ApoL1, 3-hydroxy-1,2-dimethyl-4(1H)-pyridone], the results for the FIC in assay [3] (in combination with Colisitin) and in assay [3] (in combination with Rifampin) were 1.25 and 0.75, respectively. Further, the minimal inhibitory concentration (MIC) in assay [4] lay within 600 to 700 µg/mL (≈ 4.31 to 5.03 mM).

As to `OCCN1CCN(Cc2ccc(O)c3ncccc23)CC1` [VK28, 5-(4-(2-hydroxyethyl)piperazin-1-ylmethyl)-8-hydroxyquinoline], the “inhibition of growth (OD600)” value in assay [5] (M9 with 2 mM MgSO4, 50-200 μg/ml VK28) was “inhibition of growth of Pseudomonas aeruginosa is not reduced in the presence of magnesium”; in assay [5] (M9 with 2 mM MgSO4 and 1.35 mM CaCl2) it was “inhibition of growth of a number of strains of bacteria is not reduced in the presence of magnesium and calcium”. Moreover, the wound healing result in assay [6] (F-127 gel containing 5% VK28, topical, daily for 14 days, vs gel alone (FIG. 11)) is “Healing scab and reduced wound size; also recorded: the wound treated with the control composition did not heal as well as the wound treated with the iron chelator composition”; in assay [6] (composition containing 1% VK28, other mice), “not particularly efficacious”; in assay [6] (composition containing 5% VK28, other mice), “efficacious in promoting wound healing”. Further, in assay [7], the time-kill effect entry is on record as “bacteriostatic (considered bacteriostatic if the inoculum's size was reduced by 0 to <3 log 10 CFU/ml)”. Besides, in assay [8], the “inhibition of the activity of antibiotics by VK28” value is “only inhibited the activity of one antibiotic, namely thiamphenicol; also recorded: not shown to inhibit the activity of the antibiotics with the exception of Thiaphenicol”.
